In ChEMBL document CHEMBL1148186, “Structure of Benthophoenin, a New Free Radical Scavenger Produced by Streptomyces prunicolor” (J Nat Prod, 1993):
In brackets after ≈: the same amount, converted by molar mass.

Columns and labels:
[1] = Antioxidant activity assessed as free radical scavenging activity; type: functional
[2] = Antioxidant activity assessed as inhibition of AAPH-induced rat erythrocytes hemolysis; type: functional, cell-based; details: erythrocyte

Molecule	IC50 [1] [µg/mL]	IC50 [2] [µg/mL]
CC(C)=CCC/C(C)=C/CN1c2cc(C(=O)c3ccccc3)ccc2Nc2c(C(=O)O)cc(C(=O)c3ccccc3)cc21 [BENTHOPHOENIN]	0.15 (≈ 0.263 µM)	0.8 (≈ 1.4 µM)
VITAMIN E	10.8	–
